Experimental data as given in PubChem BioAssay (NCI).
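Five compound concentrations were applied to cells in 96-well plates for 48 hours; endpoints were derived by simple linear interpolation of the resulting dose-response curve. At the TGI there is no net growth.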

Experiments:
Assay in all cases: NCI anticancer screen, dose series, 48 h
[1] = test system: A498 renal
[2] = test system: A549 NSCLC
[3] = test system: ACHN renal
[4] = test system: BT-549 breast
[5] = test system: CAKI-1 renal
[6] = test system: CCRF-CEM leukemia
[7] = test system: COLO 205 colon
[8] = test system: DU-145 prostate
[9] = test system: EKVX NSCLC
[10] = test system: HCT-116 colon
[11] = test system: HCT-15 colon
[12] = test system: HOP-62 NSCLC
[13] = test system: HOP-92 NSCLC
[14] = test system: HS 578T breast
[15] = test system: HT29 colon
[16] = test system: IGROV1 ovarian
[17] = test system: K-562 leukemia
[18] = test system: KM12 colon
[19] = test system: LOX IMVI melanoma
[20] = test system: M14 melanoma
[21] = test system: MALME-3M melanoma
[22] = test system: MCF7 breast
[23] = test system: MDA-MB-231 breast
[24] = test system: MDA-MB-435
[25] = test system: MDA-N
[26] = test system: MOLT-4 leukemia
[27] = test system: NCI-H226 lung
[28] = test system: NCI-H23 lung
[29] = test system: NCI-H522 lung
[30] = test system: NCI/ADR-RES ovarian
[31] = test system: OVCAR-3 ovarian
[32] = test system: OVCAR-4 ovarian
[33] = test system: OVCAR-5 ovarian
[34] = test system: OVCAR-8 ovarian
[35] = test system: PC-3 prostate
[36] = test system: RPMI-8226 leukemia
[37] = test system: RXF 393 renal
[38] = test system: SF-268 CNS
[39] = test system: SF-295 CNS
[40] = test system: SF-539 CNS
[41] = test system: SK-MEL-2 melanoma
[42] = test system: SK-MEL-28 melanoma
[43] = test system: SK-OV-3 ovarian
[44] = test system: SNB-19 CNS
[45] = test system: SNB-75 CNS
[46] = test system: SR leukemia
[47] = test system: SW-620 colon
[48] = test system: T-47D breast
[49] = test system: TK-10 renal
[50] = test system: U251 CNS
[51] = test system: UACC-62 melanoma
[52] = test system: UO-31 renal
[53] = test system: 786-0 renal
[54] = test system: HCC-2998 colon
[55] = test system: NCI-H460 lung
[56] = test system: SK-MEL-5 melanoma
[57] = test system: SN12C renal
[58] = test system: UACC-257 melanoma
[59] = test system: HL-60(TB) leukemia

In the case of CC(C)(C)c1cc(C2NC(=O)NC2=O)cc(C(C)(C)C)c1O (centres undefined), the TGI [1] is reported as over 100 µM, the TGI [2] is reported as over 100 µM and the TGI [3] is reported as over 100 µM. It also gave a TGI [4] of over 100 µM, a TGI [5] of over 100 µM and a TGI [6] of over 100 µM. It also gave a TGI [7] of over 100 µM, a TGI [8] of over 100 µM and a TGI [9] of over 100 µM. For the same molecule, the TGI [10] was 84.5 µM, the TGI [11] was over 100 µM and the TGI [12] was over 100 µM. The TGI [13] was over 100 µM, the TGI [14] was 69.8 µM and the TGI [15] was over 100 µM. It also gave a TGI [16] of over 100 µM, a TGI [17] of over 100 µM and a TGI [18] of 48.4 µM. The TGI [19] was over 100 µM, the TGI [20] was over 100 µM and the TGI [21] was over 100 µM. It also gave a TGI [22] of 83.3 µM, a TGI [23] of over 100 µM and a TGI [24] of over 100 µM. It also gave a TGI [25] of over 100 µM, a TGI [26] of over 100 µM and a TGI [27] of over 100 µM. It also gave a TGI [28] of over 100 µM, a TGI [29] of over 100 µM and a TGI [30] of over 100 µM. It also gave a TGI [31] of over 100 µM, a TGI [32] of over 100 µM and a TGI [33] of over 100 µM. It also gave a TGI [34] of over 100 µM, a TGI [35] of over 100 µM and a TGI [36] of over 100 µM. It also gave a TGI [37] of 95.7 µM, a TGI [38] of over 100 µM and a TGI [39] of over 100 µM. The TGI [40] was over 100 µM, the TGI [41] was over 100 µM and the TGI [42] was over 100 µM. The TGI [43] was over 100 µM, the TGI [44] was over 100 µM and the TGI [45] was 84.4 µM. It also gave a TGI [46] of over 100 µM, a TGI [47] of over 100 µM and a TGI [48] of over 100 µM. For the same molecule, the TGI [49] was 95.2 µM, the TGI [50] was over 100 µM and the TGI [51] was over 100 µM. For the same molecule, the TGI [52] was over 100 µM.
CN(/N=C/c1ccc(Cl)c(Cl)c1)C1=NCCN1 gave a TGI [53] of 34.2 µM, a TGI [1] of 28.1 µM and a TGI [2] of over 100 µM. For the same molecule, the TGI [3] was over 100 µM, the TGI [4] was 95.3 µM and the TGI [5] was 37.8 µM. The TGI [6] was over 100 µM, the TGI [7] was 38.9 µM and the TGI [8] was over 100 µM. The TGI [9] was over 100 µM, the TGI [54] was 75.2 µM and the TGI [10] was 39.1 µM. The TGI [11] was over 100 µM, the TGI [12] was 37.7 µM and the TGI [13] was 62.6 µM. The TGI [14] was over 100 µM, the TGI [15] was over 100 µM and the TGI [16] was over 100 µM. The TGI [17] was over 100 µM, the TGI [18] was 67.6 µM and the TGI [19] was 27.7 µM. For the same molecule, the TGI [20] was 31.6 µM, the TGI [21] was 36.9 µM and the TGI [22] was 49.8 µM. For the same molecule, the TGI [23] was 77.2 µM, the TGI [24] was 44.6 µM and the TGI [25] was 31.9 µM. The TGI [26] was 59.8 µM, the TGI [27] was 72 µM and the TGI [28] was over 100 µM. For the same molecule, the TGI [55] was over 100 µM, the TGI [29] was 27.8 µM and the TGI [30] was over 100 µM. For the same molecule, the TGI [31] was over 100 µM, the TGI [32] was over 100 µM and the TGI [33] was over 100 µM. It also gave a TGI [34] of over 100 µM, a TGI [35] of 38.3 µM and a TGI [36] of 60.9 µM. For the same molecule, the TGI [38] was over 100 µM, the TGI [39] was 69 µM and the TGI [40] was 40.4 µM. The TGI [41] was 43.6 µM, the TGI [56] was 30.7 µM and the TGI [43] was 81.8 µM. The TGI [57] was 92.7 µM, the TGI [44] was over 100 µM and the TGI [45] was over 100 µM. The TGI [46] was 86.7 µM, the TGI [47] was 54.4 µM and the TGI [48] was 90.8 µM. It also gave a TGI [49] of over 100 µM, a TGI [50] of 59.8 µM and a TGI [58] of 45.2 µM. It also gave a TGI [51] of 35.4 µM.
O=C1/C(=C2\SCC(=O)N2c2ccccc2)SC(=S)N1c1ccccc1 was tested, and the TGI [53] was over 100 µM, the TGI [1] was over 100 µM and the TGI [2] was over 100 µM. The TGI [3] was 97.7 µM, the TGI [4] was over 100 µM and the TGI [5] was 57.1 µM. It also gave a TGI [6] of over 100 µM, a TGI [7] of over 100 µM and a TGI [8] of over 100 µM. For the same molecule, the TGI [9] was 82 µM, the TGI [54] was 62.1 µM and the TGI [10] was over 100 µM. The TGI [11] was over 100 µM, the TGI [59] was over 100 µM and the TGI [13] was 82.7 µM. The TGI [14] was over 100 µM, the TGI [15] was over 100 µM and the TGI [16] was 52.7 µM. For the same molecule, the TGI [17] was over 100 µM, the TGI [18] was over 100 µM and the TGI [19] was over 100 µM. It also gave a TGI [20] of over 100 µM, a TGI [21] of over 100 µM and a TGI [22] of over 100 µM. For the same molecule, the TGI [23] was 45.2 µM, the TGI [24] was over 100 µM and the TGI [25] was over 100 µM. For the same molecule, the TGI [26] was 51.7 µM, the TGI [27] was 48.4 µM and the TGI [28] was over 100 µM. For the same molecule, the TGI [55] was over 100 µM, the TGI [30] was 90.7 µM and the TGI [31] was 83.2 µM. It also gave a TGI [32] of 66.9 µM, a TGI [33] of over 100 µM and a TGI [34] of over 100 µM. It also gave a TGI [35] of over 100 µM, a TGI [36] of over 100 µM and a TGI [37] of over 100 µM. For the same molecule, the TGI [38] was over 100 µM, the TGI [39] was 82.7 µM and the TGI [40] was 85.4 µM. For the same molecule, the TGI [41] was over 100 µM, the TGI [42] was over 100 µM and the TGI [56] was over 100 µM. For the same molecule, the TGI [43] was 55.2 µM, the TGI [57] was 68.6 µM and the TGI [44] was over 100 µM. It also gave a TGI [46] of 29.6 µM, a TGI [47] of over 100 µM and a TGI [48] of over 100 µM. The TGI [49] was over 100 µM, the TGI [50] was over 100 µM and the TGI [58] was over 100 µM. It also gave a TGI [51] of over 100 µM.
For CN(C)/C=N/S(=O)(=O)c1nn2c(C=O)c(-c3cc4ccccc4oc3=O)nc2s1, the TGI [53] was 5.24 µM, the TGI [1] was 55.3 µM and the TGI [2] was over 63.5 µM. For the same molecule, the TGI [3] was 5.9 µM, the TGI [4] was 33.1 µM and the TGI [5] was 4.95 µM. It also gave a TGI [6] of 7.33 µM, a TGI [8] of over 36.6 µM and a TGI [9] of 43 µM. The TGI [54] was 48.5 µM, the TGI [10] was 5.89 µM and the TGI [11] was 27.6 µM. It also gave a TGI [59] of 4.05 µM, a TGI [12] of over 59.2 µM and a TGI [13] of 19.2 µM. The TGI [14] was over 27 µM, the TGI [15] was 2.97 µM and the TGI [16] was 25.1 µM. For the same molecule, the TGI [17] was over 24.4 µM, the TGI [18] was over 49 µM and the TGI [19] was 15.4 µM. The TGI [21] was 6.07 µM, the TGI [22] was over 36.6 µM and the TGI [23] was 32.3 µM. It also gave a TGI [24] of 62.4 µM, a TGI [25] of 20.7 µM and a TGI [26] of over 20.6 µM. For the same molecule, the TGI [27] was over 56.5 µM, the TGI [28] was 42.4 µM and the TGI [55] was over 88.1 µM. It also gave a TGI [29] of 3.09 µM, a TGI [30] of over 100 µM and a TGI [31] of 17.3 µM. The TGI [32] was 28.3 µM, the TGI [33] was over 84.3 µM and the TGI [34] was over 42 µM. For the same molecule, the TGI [35] was over 48.5 µM, the TGI [36] was 30.4 µM and the TGI [37] was 9.97 µM. It also gave a TGI [38] of over 44.9 µM, a TGI [39] of over 100 µM and a TGI [40] of 61 µM. It also gave a TGI [41] of 40.1 µM, a TGI [42] of 12.1 µM and a TGI [56] of 12 µM. It also gave a TGI [43] of over 100 µM, a TGI [57] of 24.5 µM and a TGI [44] of over 100 µM. It also gave a TGI [45] of over 82.1 µM, a TGI [46] of 36.5 µM and a TGI [47] of over 29.4 µM. For the same molecule, the TGI [48] was 18.6 µM, the TGI [49] was 14.8 µM and the TGI [50] was over 42.6 µM. The TGI [58] was 29.3 µM, the TGI [51] was 27.5 µM and the TGI [52] was 4.84 µM.
